Assay results reported in patent publication US7279600B2, “Hydroxy-biphenyl-carbaldehyde oxime derivatives and their use as estrogenic agents” (Wyeth, priority 2003, dated 2007).
Counter-ions that a name gives are not always drawn.

Experiments:
ERβ = ERβ (Homo sapiens, UniProt Q92731); experiment: biochemical
ERα = ERα (Homo sapiens, UniProt P03372); experiment: biochemical
Chain of ERα (P03372 whole entry): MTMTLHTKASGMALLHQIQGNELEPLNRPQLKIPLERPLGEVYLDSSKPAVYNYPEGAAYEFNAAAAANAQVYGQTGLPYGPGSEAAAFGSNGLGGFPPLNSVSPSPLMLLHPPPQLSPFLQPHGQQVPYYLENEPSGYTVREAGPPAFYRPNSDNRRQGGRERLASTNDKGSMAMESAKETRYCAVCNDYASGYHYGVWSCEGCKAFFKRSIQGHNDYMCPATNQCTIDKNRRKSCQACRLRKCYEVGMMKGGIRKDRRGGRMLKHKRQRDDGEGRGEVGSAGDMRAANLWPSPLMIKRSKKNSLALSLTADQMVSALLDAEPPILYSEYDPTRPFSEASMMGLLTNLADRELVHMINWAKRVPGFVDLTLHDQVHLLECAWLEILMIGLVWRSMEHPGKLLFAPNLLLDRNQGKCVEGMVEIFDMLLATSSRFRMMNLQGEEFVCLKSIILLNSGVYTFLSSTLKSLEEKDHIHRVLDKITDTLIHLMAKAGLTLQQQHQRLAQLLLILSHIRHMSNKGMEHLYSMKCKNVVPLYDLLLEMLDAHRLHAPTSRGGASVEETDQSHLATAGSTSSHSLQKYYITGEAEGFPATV

Chain of ERβ (Q92731 whole entry, species assumed): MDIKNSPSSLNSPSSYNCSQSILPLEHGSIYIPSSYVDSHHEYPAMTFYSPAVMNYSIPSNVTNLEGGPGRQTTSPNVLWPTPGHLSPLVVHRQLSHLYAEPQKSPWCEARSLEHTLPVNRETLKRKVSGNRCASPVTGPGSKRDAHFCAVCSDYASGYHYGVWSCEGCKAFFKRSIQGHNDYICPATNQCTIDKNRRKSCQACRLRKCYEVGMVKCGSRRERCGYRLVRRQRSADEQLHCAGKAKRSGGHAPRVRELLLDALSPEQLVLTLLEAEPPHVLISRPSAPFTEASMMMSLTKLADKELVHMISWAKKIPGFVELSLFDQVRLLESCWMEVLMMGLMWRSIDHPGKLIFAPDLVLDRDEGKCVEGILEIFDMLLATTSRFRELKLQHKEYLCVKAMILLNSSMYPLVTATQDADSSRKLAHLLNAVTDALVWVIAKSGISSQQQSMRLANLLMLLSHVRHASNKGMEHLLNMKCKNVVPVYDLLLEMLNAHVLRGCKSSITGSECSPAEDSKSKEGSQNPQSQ

Row | melting point [°C] | IC50 (ERβ) [nM] | IC50 (ERα) [nM] | Compound
1 | 225 to 227 | – | – | O/N=C/c1ccc(-c2ccc(O)c(F)c2)c(Cl)c1Cl (as salt: salt) [Example 57, 2,3-Dichloro-3′-fluoro-4′-hydroxy-1,1′-biphenyl-4-carbaldehyde oxime]
2 | 169 to 171 | 27 | 174 | Cc1cc(O)ccc1-c1ccc(/C=N/O)c(Cl)c1 [Example 39, 3-Chloro-4′-hydroxy-2′-methyl-1,1′-biphenyl-4-carbaldehyde oxime]
3 | 183 to 186 | 8 | 64 | O/N=C/c1c(Cl)cc(-c2ccc(O)cc2)cc1Cl [Example 54, 3,5-Dichloro-4′-hydroxy-1,1′-biphenyl-4-carbaldehyde oxime]
4 | 185 to 190 | – | – | O/N=C/c1c(Cl)cc(-c2ccc(O)c(F)c2)cc1Cl [Example 55, 3,5-Dichloro-3′-fluoro-4′-hydroxy-1,1′-biphenyl-4-carbaldehyde oxime]
5 | 208 to 210 | 49 | 851 | O/N=C/c1ccc(-c2ccc(O)cc2)c(Cl)c1Cl [Example 56, 2,3-Dichloro-4′-hydroxy-1,1′-biphenyl-4-carbaldehyde oxime]
6 | – | 81 | 1960 | O/N=C/c1ccc(-c2ccc(O)c(F)c2)c(Cl)c1Cl [Example 57, 2,3-Dichloro-3′-fluoro-4′-hydroxy-1,1′-biphenyl-4-carbaldehyde oxime]

More lines, now with the values behind:

Row | Compound | melting point [°C] | IC50 (ERβ) [nM] | IC50 (ERα) [nM]
7 | Cc1cc(-c2ccc(O)cc2)ccc1/C=N/O [Example 29, 4′-Hydroxy-3-methyl[1,1′-biphenyl]-4-carbaldehyde oxime] | 195 to 197 | 163 | 3190
8 | O/N=C/c1ccc(-c2ccc(O)cc2)cc1 [Example 30, 4′-Hydroxy[1,1′-biphenyl]-4-carbaldehyde oxime] | 207 to 210 | 3840 | > 5000
9 | O/N=C/c1ccc(-c2ccc(O)cc2)cc1Cl [Example 31, 3-Chloro-4′-hydroxy[1,1′-biphenyl]-4-carbaldehyde oxime] | 187 to 189 | 85 | 1540
10 | O/N=C/c1ccc(-c2ccc(O)cc2)c(F)c1 [Example 32, 2-Fluoro-4′-hydroxy-1,1′-biphenyl-4-carbaldehyde oxime] | 178 to 180 | 421 | 3450
11 | O/N=C/c1ccc(-c2ccc(O)cc2)cc1F [Example 33, 3-Fluoro-4′-hydroxy-1,1′-biphenyl-4-carbaldehyde oxime] | – | 161 | 1720
12 | O/N=C/c1ccc(-c2ccc(O)cc2)c(Cl)c1 [Example 34, 2-Chloro-4′-hydroxy-1,1′-biphenyl-4-carbaldehyde oxime] | 178 to 179 | 98 | 398
13 | COc1cc(-c2ccc(O)cc2)ccc1/C=N/O [Example 35, 4′-Hydroxy-3-methoxy-1,1′-biphenyl-4-carbaldehyde oxime] | 228 to 230 | 1060 | 7990
14 | Cc1cc(/C=N/O)ccc1-c1ccc(O)cc1 [Example 36, 4′-Hydroxy-2-methyl-1,1′-biphenyl-4-carbaldehyde oxime] | 169 to 171 | 585 | 2820
15 | O/N=C/c1ccc(-c2ccc(O)c(F)c2)cc1Cl [Example 37, 3-Chloro-3′-fluoro-4′-hydroxy-1,1′-biphenyl-4-carbaldehyde oxime] | 198 to 200 | 54 | 1910
16 | O/N=C/c1ccc(-c2cc(F)c(O)c(F)c2)cc1Cl [Example 38, 3-Chloro-3′, 5′-fluoro-4′-hydroxy-1,1′-biphenyl-4-carbaldehyde oxime] | 216 to 219 | 268 | > 7000
